Measurements reported in PubChem BioAssay AID248 (DTP/NCI, 2004).
Toxic doses and inconclusive results are not listed. No stated cut-off is given here; in the data, active means T/C of 150% or more; inactive means T/C below 125%.

Tested on: L1210 leukemia ip in BDF1 mice, survival T/C
Test: NCI In Vivo Anticancer Drug Screen. Data for tumor model L1210 Leukemia (intraperitoneal) in B6D2F1 (BDF1) mice
Details: endpoint: mean survival time, higher = longer survival
Outline: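 In this screen, tumor-bearing mice given compound are compared to those given vehicle, and their survival values are reported as a treated-to-control quotient.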

[1] = dose: 100.0 mg/kg/injection, schedule: Q01DX001 (ip), vehicle: saline
[2] = dose: 200.0 mg/kg/injection, schedule: Q01DX001 (ip), vehicle: saline
[3] = dose: 400.0 mg/kg/injection, schedule: Q01DX001 (ip), vehicle: saline
[4] = dose: 100.0 mg/kg/injection, schedule: Q01DX009 (ip), vehicle: saline
[5] = dose: 12.5 mg/kg/injection, schedule: Q01DX009 (ip), vehicle: Klucel (hydroxypropylcellulose) (HPC)
[6] = dose: 25.0 mg/kg/injection, schedule: Q01DX009 (ip), vehicle: Klucel (hydroxypropylcellulose) (HPC)
[7] = dose: 50.0 mg/kg/injection, schedule: Q01DX009 (ip), vehicle: Klucel (hydroxypropylcellulose) (HPC)
[8] = dose: 100.0 mg/kg/injection, schedule: Q01DX009 (ip), vehicle: Klucel (hydroxypropylcellulose) (HPC)
[9] = dose: 100.0 mg/kg/injection, schedule: Q04DX003 (ip), vehicle: Klucel (hydroxypropylcellulose) (HPC)
[10] = dose: 200.0 mg/kg/injection, schedule: Q04DX003 (ip), vehicle: Klucel (hydroxypropylcellulose) (HPC)
[11] = dose: 400.0 mg/kg/injection, schedule: Q01DX009 (ip), vehicle: Klucel (hydroxypropylcellulose) (HPC)
[12] = dose: 400.0 mg/kg/injection, schedule: Q04DX003 (ip), vehicle: Klucel (hydroxypropylcellulose) (HPC)

Measured: T/C

O=NN(CCCl)C(=O)Nc1cccc(C(=O)O)c1
inactive: dose: 0.62 mg/kg/injection, schedule: Q01DX001 (ip), vehicle: carboxymethylcellulose (CMC) 117 % of control | dose: 5.0 mg/kg/injection, schedule: Q01DX001 (ip), vehicle: carboxymethylcellulose (CMC) 123 % of control | dose: 12.0 mg/kg/injection, schedule: Q01DX001 (ip), vehicle: saline 121 % of control

COc1cc2c(cc1OC)Cc1cc(OC)c(OC)cc1Cc1cc(OC)c(OC)cc1C2
inactive: dose: 100.0 mg/kg/injection, schedule: Q04DX003 (ip), vehicle: saline 92 % of control | dose: 200.0 mg/kg/injection, schedule: Q04DX003 (ip), vehicle: saline 96 % of control | dose: 400.0 mg/kg/injection, schedule: Q04DX003 (ip), vehicle: saline 97 % of control

O=NN(CCCl)C(=O)Nc1ccc(Cn2cnc3c(=O)[nH]cnc32)cc1
inactive: dose: 28.0 mg/kg/injection, schedule: Q01DX009 (ip), vehicle: other 88 % of control | dose: 125.0 mg/kg/injection, schedule: Q01DX001 (ip), vehicle: other 101 % of control
active: dose: 5.0 mg/kg/injection, schedule: Q01DX009 (ip), vehicle: other 150 % of control | dose: 7.0 mg/kg/injection, schedule: Q01DX009 (ip), vehicle: other 155 % of control | dose: 14.0 mg/kg/injection, schedule: Q01DX009 (ip), vehicle: other 162 % of control | dose: 18.0 mg/kg/injection, schedule: Q01DX001 (ip), vehicle: other 161 % of control | dose: 31.0 mg/kg/injection, schedule: Q01DX001 (ip), vehicle: other 155 % of control | dose: 36.0 mg/kg/injection, schedule: Q01DX001 (ip), vehicle: other 185 % of control | dose: 45.0 mg/kg/injection, schedule: Q01DX001 (ip), vehicle: other 196 % of control | dose: 46.0 mg/kg/injection, schedule: Q01DX001 (ip), vehicle: other 169 % of control | dose: 62.0 mg/kg/injection, schedule: Q01DX001 (ip), vehicle: other 169 % of control | dose: 63.0 mg/kg/injection, schedule: Q01DX001 (ip), vehicle: other 164 % of control

CCC(C(=O)O)(c1ccccc1)c1ccccc1
inactive: dose: 100.0 mg/kg/injection, schedule: Q04DX002 (ip), vehicle: gum acacia 93 % of control | dose: 200.0 mg/kg/injection, schedule: Q04DX002 (ip), vehicle: gum acacia 111 % of control | dose: 400.0 mg/kg/injection, schedule: Q04DX002 (ip), vehicle: gum acacia 86 % of control

Cc1ccc(C(=O)/C=C/c2ccc3c(c2)OCO3)c(C)c1
inactive: dose: 100.0 mg/kg/injection, schedule: Q04DX002 (ip), vehicle: DMSO 103 % of control | dose: 200.0 mg/kg/injection, schedule: Q04DX002 (ip), vehicle: DMSO 93 % of control | dose: 400.0 mg/kg/injection, schedule: Q04DX002 (ip), vehicle: DMSO 103 % of control

O=C(C(=O)c1ccco1)c1ccccc1
inactive: dose: 75.0 mg/kg/injection, schedule: Q01DX001 (ip), vehicle: carboxymethylcellulose (CMC) 100 % of control | dose: 150.0 mg/kg/injection, schedule: Q01DX001 (ip), vehicle: carboxymethylcellulose (CMC) 102 % of control | dose: 300.0 mg/kg/injection, schedule: Q01DX001 (ip), vehicle: carboxymethylcellulose (CMC) 97 % of control

O=C(/C=C\c1ccccc1)NCCCCNC(=O)/C=C/c1ccccc1
inactive: [1] 97 % of control | [2] 105 % of control | [3] 87 % of control

O=C(NCCCN1CCN(CCCNC(=O)c2cccnc2)CC1)c1cccnc1
inactive: dose: 6.25 mg/kg/injection, schedule: Q01DX009 (ip), vehicle: saline 92 % of control | dose: 12.5 mg/kg/injection, schedule: Q01DX009 (ip), vehicle: saline 93 % of control | dose: 25.0 mg/kg/injection, schedule: Q01DX009 (ip), vehicle: saline 97 % of control | dose: 50.0 mg/kg/injection, schedule: Q01DX009 (ip), vehicle: saline 101 % of control | [4] 109 % of control | dose: 150.0 mg/kg/injection, schedule: Q01DX009 (ip), vehicle: saline 100 % of control | dose: 225.0 mg/kg/injection, schedule: Q01DX009 (ip), vehicle: saline 109 % of control

CC1=Nc2ccccc2NC(C)C1C (configuration not stated)
inactive: [5] 100 % of control | [6] 96 % of control | [7] 108 % of control | [4] 91 % of control

C[N+](C)(C)CSc1ccccc1-n1cccc1
inactive: [5] 112 % of control | dose: 12.5 mg/kg/injection, schedule: Q04DX003 (ip), vehicle: Klucel (hydroxypropylcellulose) (HPC) 103 % of control | [6] 103 % of control | dose: 25.0 mg/kg/injection, schedule: Q04DX003 (ip), vehicle: Klucel (hydroxypropylcellulose) (HPC) 92 % of control | [7] 110 % of control | dose: 50.0 mg/kg/injection, schedule: Q04DX003 (ip), vehicle: Klucel (hydroxypropylcellulose) (HPC) 97 % of control

Cc1c(O)c(CN2CCOCC2)cc(CN2CCOCC2)c1O
inactive: [1] 86 % of control | [2] 90 % of control | [3] 86 % of control

CN(C)c1ccc(/C=C2\C=Cc3ccccc32)c(F)c1
inactive: [8] 98 % of control | [9] 96 % of control | dose: 200.0 mg/kg/injection, schedule: Q01DX009 (ip), vehicle: Klucel (hydroxypropylcellulose) (HPC) 101 % of control | [10] 93 % of control | [11] 92 % of control | [12] 96 % of control

O=c1[nH][n+]([O-])cc2c(C(O)=C(O)O)c[nH]c12
inactive: dose: 25.0 mg/kg/injection, schedule: Q04DX002 (ip), vehicle: saline with Tween-80 94 % of control | dose: 50.0 mg/kg/injection, schedule: Q04DX002 (ip), vehicle: saline with Tween-80 98 % of control | dose: 100.0 mg/kg/injection, schedule: Q04DX002 (ip), vehicle: saline with Tween-80 105 % of control

Cn1nc(N)c2cc(C(N)=O)c(N)nc21
inactive: [8] 88 % of control | [9] 96 % of control | [10] 100 % of control | [11] 90 % of control | [12] 97 % of control

COc1ccc(-n2c(=O)c(N=Nc3ccccc3C)c(O)n(-c3ccc(Br)cc3)c2=S)cc1
inactive: dose: 37.5 mg/kg/injection, schedule: Q01DX001 (ip), vehicle: Klucel (hydroxypropylcellulose) (HPC) 94 % of control | dose: 75.0 mg/kg/injection, schedule: Q01DX001 (ip), vehicle: Klucel (hydroxypropylcellulose) (HPC) 92 % of control | dose: 150.0 mg/kg/injection, schedule: Q01DX001 (ip), vehicle: Klucel (hydroxypropylcellulose) (HPC) 105 % of control

COc1ccc(-c2ccns2)cc1
inactive: dose: 100.0 mg/kg/injection, schedule: Q01DX001 (ip), vehicle: carboxymethylcellulose (CMC) 93 % of control | dose: 200.0 mg/kg/injection, schedule: Q01DX001 (ip), vehicle: carboxymethylcellulose (CMC) 92 % of control

CCCOC(=O)c1ccccc1
inactive: dose: 100.0 mg/kg/injection, schedule: Q01DX001 (ip), vehicle: Klucel (hydroxypropylcellulose) (HPC) 100 % of control | dose: 200.0 mg/kg/injection, schedule: Q01DX001 (ip), vehicle: Klucel (hydroxypropylcellulose) (HPC) 97 % of control | dose: 400.0 mg/kg/injection, schedule: Q01DX001 (ip), vehicle: Klucel (hydroxypropylcellulose) (HPC) 97 % of control
